Results published in patent US8563511B2, “Treatment of pulmonary hypertension using an agent that inhibits a tissue factor pathway” (University of Rochester, priority 2004, dated 2013).

Experiments:
Male Sprague Dawley rats = test: Induction of PAH by MCT after sham surgery or pneumonectomy in young rats; format: in vivo, rat; conditions: for pulmonary pressure (RVSP, mean PA): FIG. 1
Experimental: All animal studies were approved by the IACUC at the University of Rochester prior to the initiation of any animal experiments. Male Sprague Dawley rats weighing between 200 and 250 g were shaved and then endotracheally intubated with an 18 G angiocatheter after anesthesia with ketamine and xylazine (70 mg/kg ketamine and 50 mg/kg xylazine delivered intraperitoneal in 0.9% saline). Flunixin was administered 0.1 mg/kg SQ at the beginning of the case to provide 24 hours postoperative analgesia. Animals were ventilated (respiratory rate 70-90, adjusted while monitoring the animal to prevent spontaneous respiratory effort) at 10-12 cc/kg (Harvard Apparatus) and the left chest was prepared with Betadine scrub. The fourth or fifth intercostal space was identified, and an incision was made with care to avoid lung damage while ventilation was briefly interrupted. A rib retractor was used to expose the thoracic cavity, and the lung was lifted gently to expose the hilar structures. Two ligaclips (Ektacon LS200, Johnson & Johnson) were applied proximally before the left lung was cut at the distal hilar structure. A polyethylene tube with holes at the end and cut into the sides was inserted through the sixth intercostal space and laid in the thoracic cavity where the left lung had been. Two absorbable sutures were used to approximate the ribs, and then the muscles and subcutaneous tissue were approximated with an additional layer of sutures. Care was taken to carefully seal the thoracostomy tube with tissue so that the hole would close spontaneously when the thoracostomy tube was removed. Suction was applied to the tubing at the earliest possible time once a seal had been achieved (sometimes before the subcutaneous tissues were closed). Antisedan (Orion) was administered 0.2 mg/kg IM, and the skin was closed with 9 mm Autoclips (Stoelting). The animal was taken off the ventilator and monitored for spontaneous respirations while suction was applied to the thoracostomy tube. The rat was required to make significant respiratory effort and begin to right itself on the table before the endotracheal and thoracostomy tubes were removed. […] A 30 to 40% mortality is routinely encountered in the 24 hour perioperative period. For the sham surgery, an incision was made to the chest wall. With great care, ventilation was stopped, the chest was listed with forceps, and a small incision was made in the fourth or fifth intercostal space. If there was any evidence for lung damage, the case was converted to a pneumonectomy. A smaller polyethylene tube was inserted through the same hole and laid between the lung and the chest wall. The ribs were approximated with one or two sutures as appropriate. The remainder of the procedure was identical. The animal was ventilated for several minutes after the chest was closed but before sedation was reversed to make sure that total time under anesthesia was approximately the same as in pneumonectomy cases.
(§1) One week later, animals were given MCT (dissolved 60 mg/ml in DMSO) as a subcutaneous injection (vehicle animals were treated with the same volume of DMSO alone). They were monitored and allowed ordinary chow and water for 28 days (in the group of animals which were utilized to generate FIG. 2, two of the animals initially treated with pneumonectomy and MCT died spontaneously on days 18 and 23, so the remaining four animals were sacrificed at Day 24).
Exercise capacity was monitored 5 and 10 days after MCT treatment and then more frequently as the disease progressed. Rats were placed on a treadmill (Columbus Instruments) that stimulates them with a mild electric shock when they fail to run. Each assessment lasted for 16 min: 2 min. @ 10 m/min, 4 min @ 15 m/min, 5 min @ 20 m/min, and 5 min @ 25 m/min. The maximum distance run was 305 m. This procedure has been specifically approved by the local IACUC.
Initially, a grid intensity of 70% maximum and frequency of 2 Hz was used. […]

[1] = system: patients with pulmonary hypertension; conditions: cited from earlier work
[2] = system: Pneum/MCT rats (rat model of severe pulmonary arterial hypertension); test: Treatment of PAH in pneumonectomy + MCT young rat model; format: in vivo; conditions: bosentan 100 mg/kg daily
Experimental: All animal studies were approved by the IACUC at the University of Rochester prior to the initiation of any animal experiments. Male Sprague Dawley rats weighing between 200 and 250 g were shaved and then endotracheally intubated with an 18 G angiocatheter after anesthesia with ketamine and xylazine (70 mg/kg ketamine and 50 mg/kg xylazine delivered intraperitoneal in 0.9% saline). Flunixin was administered 0.1 mg/kg SQ at the beginning of the case to provide 24 hours postoperative analgesia. […] The animal was taken off the ventilator and monitored for spontaneous respirations while suction was applied to the thoracostomy tube. […]
as §1
Exercise capacity was monitored 5 and 10 days after MCT treatment and then more frequently as the disease progressed. […]

C[C@H]1C(=O)O[C@@H]2CCN3CC=C(COC(=O)[C@](C)(O)[C@]1(C)O)[C@H]23 [MCT, monocrotaline]
(RV + S)/LV (Male Sprague Dawley rats; MCT after pneumonectomy): 1.8 ± 0.6
(RV + S)/Weight (Male Sprague Dawley rats; MCT after pneumonectomy): 2.7 ± 0.3
LV/Weight (Male Sprague Dawley rats; MCT after pneumonectomy): 1.6 ± 0.5
pulmonary pressure (RVSP, mean PA) (Male Sprague Dawley rats; MCT after pneumonectomy): near systemic elevations in pulmonary pressure
(RV + S)/LV (Male Sprague Dawley rats; MCT after sham surgery): 1.20 ± 0.3
(RV + S)/Weight (Male Sprague Dawley rats; MCT after sham surgery): 1.9 ± 0.4
LV/Weight (Male Sprague Dawley rats; MCT after sham surgery): 1.6 ± 0.2
pulmonary pressure (RVSP, mean PA) (Male Sprague Dawley rats; MCT following sham surgery): modest PAH
exercise capacity (16 min treadmill protocol) (Male Sprague Dawley rats; Pneum/MCT rats, by day 17 after MCT): unable to complete the 16 min protocol
exercise capacity (16 min treadmill protocol) (Male Sprague Dawley rats; Sham/MCT rats): consistently completed the exercise protocol

CC(=O)CC(c1ccccc1)c1c(O)c2ccccc2oc1=O (stereo not shown) [warfarin]
survival ([1]; Kawut et al., patients also on advanced therapies such as prostacyclin): survival benefit
mortality at 5 years ([1]; Rich et al., prospective observational trial): decreased mortality

COc1ccccc1Oc1c(NS(=O)(=O)c2ccc(C(C)(C)C)cc2)nc(-c2ncccn2)nc1OCCO [bosentan]
PA pressure [2]: only a modest elevation in PA pressure
